According to patent publication US4906662A, “Phenol derivatives, their preparation and the use thereof” (Otsuka Pharmaceutical Factory, Inc., priority 1986, dated 1990):
Structures can show the parent of a compound that is named as a salt.

Key:
5-lipoxygenase = molecular target: T1, 5-lipoxygenase (Cavia porcellus, UniProt A0A286X958); experiment: 5-Lipoxygenase inhibitory activity (5-HETE formation in guinea pig peritoneal exudate cells); assay type: cell-based; settings: read-out: Percent inhibition of 5-lipoxygenase
T1 construct: endogenous in cells; host or cells: guinea pig peritoneal exudate cells (casein-elicited), intact cell suspension
T1 sequence (A0A286X958 1-674): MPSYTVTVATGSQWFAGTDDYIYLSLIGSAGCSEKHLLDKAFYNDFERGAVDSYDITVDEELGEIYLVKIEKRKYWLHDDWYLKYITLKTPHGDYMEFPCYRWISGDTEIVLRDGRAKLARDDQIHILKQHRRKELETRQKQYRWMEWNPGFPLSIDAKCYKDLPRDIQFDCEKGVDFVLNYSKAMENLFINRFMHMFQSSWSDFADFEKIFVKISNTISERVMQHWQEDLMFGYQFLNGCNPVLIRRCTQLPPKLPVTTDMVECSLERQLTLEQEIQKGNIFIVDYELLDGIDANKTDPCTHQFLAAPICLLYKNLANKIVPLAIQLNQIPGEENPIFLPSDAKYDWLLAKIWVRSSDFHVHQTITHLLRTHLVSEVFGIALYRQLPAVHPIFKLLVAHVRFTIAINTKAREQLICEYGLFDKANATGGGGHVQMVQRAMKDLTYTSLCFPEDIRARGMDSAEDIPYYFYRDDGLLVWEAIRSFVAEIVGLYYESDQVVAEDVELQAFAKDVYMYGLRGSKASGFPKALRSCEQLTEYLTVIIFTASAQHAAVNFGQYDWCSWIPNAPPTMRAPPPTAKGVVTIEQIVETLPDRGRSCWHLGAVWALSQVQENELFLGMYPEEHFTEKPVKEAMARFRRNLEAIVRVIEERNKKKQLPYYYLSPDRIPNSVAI
Protocol: (J. Biol. Chem., 256, 4156 (1981)) and to the method of Ochi et al. (J. Biol. Chem., 258, 5754 (1983). More specifically, 2% casein was intraperitoneally given to a guinea pig, which was bleeded to death 14 to 16 hours thereafter. The peritoneal cavity was washed to collect exudate cells, which were suspended in a phosphate buffer containing 1 mM CaCl2 and 5.5 mM glucose to a concentration of 2.5×10^7 cells/ml. The cell suspension was incubated at 30° C. for 2 minutes. The test compound was then added to the cell suspension, followed by incubation for 2 minutes. With addition of 10 μM of A23187 first and then 10 μM of ^14 C-arachidonic acid to the resulting suspension. Then, the suspension was incubated for 3 minutes. […] The arachidonic acid, 5(S)-hydroxy-6,8,11,14-eicosatetraenoic acid (5-HETE) and other portions were thereafter scraped off, and ^14 C was counted by a scintillator.

[1] = system: carrageenin-induced paw edema; experiment: Anti-inflammatory activity: inhibition of carrageenin-induced paw edema in rats; assay type: in vivo, rat (S.D. strain, male); settings: po; 100 mg/kg p.o.; rat, 3 hours after carrageenin; read-out: Percent inhibition of edema
Protocol: (1) Anti-inflammatory activity:inhibition of carrageenin-induced paw edema in rats The compound was tested for the above activity according to the method of Winter et al. [Proc. Soc. […] One hour after the test compound was orally given to the animal, 0.1 ml of 1% carrageenin solution was subcutaneously injected into the right footpad. The paw volume was measured 3 hours thereafter, and the resulting increase in the volume was calculated based on the volume before the injection of carrageenin solution. The percent inhibition was determined in comparison with the increase in the control group.

inhibition at 1 µM (5-lipoxygenase; 1 μM): 50%
inhibition at 10 µM (5-lipoxygenase; 10 μM): 88%
SMILES: CC(C)(C)c1cc(Nc2cccc(CO)c2)cc(C(C)(C)C)c1O [Compound 31, 2,6-di-tert-butyl-4-(3-hydroxymethylphenylamino)phenol hydrochloride]
inhibition in vivo at 100 mg/kg [1]: 33%
